Experimental data: the supplement of paper PMC10307832

What was measured:
Test in all cases: relative viability (nuclei count vs DMSO), 5 days (fraction); higher = more cells survive
Venetoclax + Bortezomib = compound: CC1(C)CCC(CN2CCN(c3ccc(C(=O)NS(=O)(=O)c4ccc(NCC5CCOCC5)c([N+](=O)[O-])c4)c(Oc4cnc5[nH]ccc5c4)c3)CC2)=C(c2ccc(Cl)cc2)C1 [Venetoclax] + CC(C)C[C@H](NC(=O)[C@H](Cc1ccccc1)NC(=O)c1cnccn1)B(O)O [Bortezomib] (partner 0.002 µM)
Method in brief: (§1)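 The day after seeding in 1536-well plates, lung cancer cell lines were treated by pin tool with a single drug, or with a fixed anchor-drug dose together with five library-drug doses (not always all listed) in √10 steps. After 5 days, a combined fix-and-stain solution (final 0.05% Triton X-100, 1% formaldehyde, 1 ug/ml Hoechst) was added. Nuclei counted on 4× images gave relative viability as treated counts over vehicle counts, reported as the median of duplicate plates.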

Venetoclax + Dasatinib = compound: CC1(C)CCC(CN2CCN(c3ccc(C(=O)NS(=O)(=O)c4ccc(NCC5CCOCC5)c([N+](=O)[O-])c4)c(Oc4cnc5[nH]ccc5c4)c3)CC2)=C(c2ccc(Cl)cc2)C1 [Venetoclax] + Cc1nc(Nc2ncc(C(=O)Nc3c(C)cccc3Cl)s2)cc(N2CCN(CCO)CC2)n1 [Dasatinib] (partner 0.075 µM)
Method in brief: as §1

Selumetinib + Lapatinib = compound: Cn1cnc2c(F)c(Nc3ccc(Br)cc3Cl)c(C(=O)NOCCO)cc21 [Selumetinib] + CS(=O)(=O)CCNCc1ccc(-c2ccc3ncnc(Nc4ccc(OCc5cccc(F)c5)c(Cl)c4)c3c2)o1 [Lapatinib] (partner 2 µM)
Method in brief: as §1

Venetoclax + Luminespib = compound: CC1(C)CCC(CN2CCN(c3ccc(C(=O)NS(=O)(=O)c4ccc(NCC5CCOCC5)c([N+](=O)[O-])c4)c(Oc4cnc5[nH]ccc5c4)c3)CC2)=C(c2ccc(Cl)cc2)C1 [Venetoclax] + CCNC(=O)c1noc(-c2cc(C(C)C)c(O)cc2O)c1-c1ccc(CN2CCOCC2)cc1 [Luminespib] (partner 0.01 µM)
Method in brief: as §1

UMC-11
relative viability (Venetoclax + Bortezomib; first compound 0.01 µM): 0.625
relative viability (Venetoclax + Bortezomib; first compound 0.03162 µM): 0.889
relative viability (Venetoclax + Bortezomib; first compound 0.1 µM): 0.604
relative viability (Venetoclax + Bortezomib; first compound 0.3162 µM): 0.732
relative viability (Venetoclax + Bortezomib; first compound 1 µM): 0.691
relative viability (Venetoclax + Dasatinib; first compound 0.01 µM): 0.45
relative viability (Venetoclax + Dasatinib; first compound 0.03162 µM): 0.518
relative viability (Venetoclax + Dasatinib; first compound 0.1 µM): 0.463
relative viability (Venetoclax + Dasatinib; first compound 0.3162 µM): 0.505
relative viability (Venetoclax + Dasatinib; first compound 1 µM): 0.491
relative viability (Selumetinib + Lapatinib; first compound 0.02 µM): 0.954
relative viability (Selumetinib + Lapatinib; first compound 0.06325 µM): 0.897
relative viability (Selumetinib + Lapatinib; first compound 0.2 µM): 0.972
relative viability (Selumetinib + Lapatinib; first compound 0.6325 µM): 1.02
relative viability (Venetoclax + Luminespib; first compound 0.01 µM): 1.06
relative viability (Venetoclax + Luminespib; first compound 0.03162 µM): 0.987
relative viability (Venetoclax + Luminespib; first compound 0.1 µM): 1.04
relative viability (Venetoclax + Luminespib; first compound 0.3162 µM): 1.02
relative viability (Venetoclax + Luminespib; first compound 1 µM): 0.882
